According to publication PMC6963971, “Withanolides from Withania aristata as Antikinetoplastid Agents through Induction of Programmed Cell Death” (Pathogens, 2019):
Where “and” joins values, the source holds several entries; their conditions need not be identical. Identical values can stand only once. Like-named read-outs stand apart in the source and are kept apart here.

What was measured:
[1] = Cytotoxicity assay (alamarBlue); assay type: cell-based, murine; conditions: mouse, J774A.1 macrophage cell line; J774A.1, 24 h; read-out: Murine Macrophages CC50
Method: (§1) To perform the experiments, promastigotes of L. amazonensis (MHOM/BR/77/LTB0016) and L. donovani (MHOM/IN/90/GE1F8R) and epimastigote T. cruzi (Y strain) were employed. Leishmania species were cultured in Schneider’s medium (Sigma-Aldrich, Madrid, Spain) at 26 °C supplemented with 10% fetal bovine serum (VWR, Biowest, Nuaillé, France) as well as in RPMI 1640 medium (Gibco, Thermo Fisher, Madrid, Spain). Epimastigotes of T. cruzi were cultured in Liver Infusion Tryptose (LIT) medium supplemented with 10% fetal bovine serum at 26 °C. For the cytotoxicity assays, murine macrophage cell line J774A.1 (ATCC TIB-67) was maintained at 37 °C in a 5% CO2 atmosphere in RPMI 1640 medium supplemented with 10% fetal bovine serum.
(§2) The cytotoxicity was evaluated using a macrophage cell line J774A.1 in RPMI medium. Macrophages were plated and at 10^5 macrophages/well and, subsequently, serial dilution of samples were added to the plates. After 24 h of incubation cell viability was determined by the alamarBlue® [28].

T. cruzi epimastigotes = test: Trypanocidal capacity assay (alamarBlue), epimastigotes; assay type: cell-based, Trypanosoma cruzi; conditions: for SI (CC50/IC50), T. cruzi: epimastigotes vs murine macrophages; for IC50: epimastigote stage, read-out: T. cruzi IC50 (µM ± SD)
Method: as §1
For the evaluation against the epimastigote stage of T. cruzi, assays were performed following the same procedure mentioned in Section 3.5.1., modifying the density to 2 × 10^5 parasite/well and using LIT medium.

L. amazonensis [2] = test: Measurement of ATP (Cell Titer-Glo); assay type: cell-based, Leishmania amazonensis; conditions: IC90, 24 h
Method: (§4) To determine the ATP level of the parasites, the Cell Titer-Glo® Luminescent Cell Viability Assay (Promega, Madison, WI, USA) was used following the manufacturer’s instructions after incubation of the parasites with the calculated IC90 of the tested withanolides for 24 h.

T. cruzi = test: Measurement of ATP (Cell Titer-Glo); assay type: cell-based, Trypanosoma cruzi; conditions: IC90, 24 h
Method: as §4

[3] = tested on: L. donovani promastigotes; test: Leishmanicidal activity assay (alamarBlue), promastigotes; assay type: cell-based, Leishmania donovani; conditions: for IC50: promastigote stage; for SI (CC50/IC50), L. donovani: promastigotes vs murine macrophages
Method: as §1
(§3) Promastigote in logarithmic phase were used for plate preparation, and the in vitro antiprotozoal assay was performed in 96-well plates. The different fractions or compounds were serially diluted on the wells and 10^6 parasites/mL were finally added. The activity of the fraction was calculated by the alamarBlue® method. In addition, the active pure molecules were tested against the amastigote stage of L. amazonensis.

L. amazonensis [4] = test: Chromatin condensation determination (Hoechst 33342/propidium iodide); assay type: cell-based, Leishmania amazonensis; conditions: IC90, 24 h
Method: The detection of condensed chromatin, was performed using the Vybrant™ Apoptosis Assay Kit #5, Hoechst 33342/Propidium Iodide (Invitrogen, Carlsbad, CA, USA). Parasites were incubated with the IC90 of the pure compounds for 24 h, then collected and centrifuged. The cell pellet was resuspended in RPMI, added to a black plate and incubated with the Hoechst 33342 and the propidium iodide. Then the plate was protected from light for 20 min at 4 °C. The EVOS FL Cell Imaging System (Invitrogen, ThermoFisher, Carlsbad, CA, USA) was used to observe the cells, using the DAPI (Hoechst) and RFP (PI) Light Cubes.

[5] = tested on: intracellular amastigote stage of L. amazonensis; test: Amastigote activity assay (parasite rescue and transformation, alamarBlue); assay type: cell-based, Leishmania amazonensis; conditions: for IC50: intracellular amastigote stage, read-out: L. amazonensis IC50 (µM ± SD); for SI (CC50/IC50), L. amazonensis amastigote: amastigotes vs murine macrophages; for fold more potent than the reference drug against L. amazonensis amastigotes: intracellular amastigote, vs miltefosine
Method: as §3
The amastigote activity was performed according to Jain et al.. After allowing the transformation of rescued amastigotes to promastigotes, the activity was evaluated by AlamarBlue method. After incubation, the fluorescence was measured in a Perkin Elmer EnSpire spectrofluorometer and fluorescence was measured at emission peak 585 nm.

[6] = tested on: L. amazonensis promastigotes; test: Leishmanicidal activity assay (alamarBlue), promastigotes; assay type: cell-based, Leishmania amazonensis; conditions: for IC50 / fold more potent than the reference drug against L. amazonensis: promastigote stage; for IC50: read-out: L. amazonensis IC50 (µM ± SD); for fold more potent than the reference drug against L. amazonensis: vs miltefosine; for SI (CC50/IC50), L. amazonensis: promastigotes vs murine macrophages
Method: as §1, §3

[7] = tested on: murine macrophage cell line J774A.1; test: Cytotoxicity assay (alamarBlue); assay type: cell-based
Method: as §1, §2

Compound	CC50 at 24 h [1]	SI (CC50/IC50), T. cruzi (T. cruzi epimastigotes)	SI (CC50/IC50), L. donovani [3]	fold more potent than benznidazole against T. cruzi epimastigotes (T. cruzi epimastigotes)	IC50 ([5]; Leishmania amazonensis)	SI (CC50/IC50), L. amazonensis amastigote [5]	fold more potent than the reference drug against L. amazonensis amastigotes [5]	fold more potent than the reference drug against L. amazonensis [6]	SI (CC50/IC50), L. amazonensis [6]	other results
O=C(Cn1ccnc1[N+](=O)[O-])NCc1ccccc1 [Benznidazole]	104 µg/mL and 400 µM	57.54	–	–	–	–	–	–	–	–
CC1=C(CO)C(=O)O[C@@H]([C@@H](C)[C@H]2CC[C@H]3[C@@H]4C[C@H]5O[C@]56[C@@H](O)C=CC(=O)[C@]6(C)[C@H]4CC[C@]23C)C1 [Compound 1, withaferin A]	11.9 ± 1.08 µM	11.69	0.91	6.8 fold	0.055 ± 0.009 µM	216.73	56 fold	7.8 fold	14.36	total ATP level (L. amazonensis [2]): strong decrease; ATP level (T. cruzi): slight decrease; IC50 ([3]; Leishmania donovani, read-out: L. donovani IC50 (µM ± SD)): 13.2 ± 1.16 µM; propidium iodide staining (L. amazonensis [4]): staining in red was observed; IC50 (T. cruzi epimastigotes; Trypanosoma cruzi): 1.02 ± 0.1 µM; IC50 ([6]; Leishmania amazonensis): 0.83 ± 0.07 µM
CCCCCCCCCCCCCCCCOP(=O)([O-])OCC[N+](C)(C)C [Miltefosine, reference compound]	29.4 µg/mL and 72.2 µM	–	21.81	–	3.12 ± 0.12 µM	23.13	–	–	11.14	IC50 ([3]; Leishmania donovani, read-out: L. donovani IC50): 1.35 µg/mL
witharistatin [Compound 3]	–	–	–	2.9 fold	–	58.66	14.9 fold	2.3 fold	–	CC50 [7]: 12.3 ± 1.16 µM; IC50 ([3]; read-out: L. donovani IC50 (µM ± SD)): 20.9 ± 1.33 µM; IC50 (T. cruzi epimastigotes): 2.41 ± 0.11 µM; IC50 [5]: 0.209 ± 0.028 µM; IC50 [6]: 2.82 ± 0.07 µM
